Measured values as given in patent US20240287172A1, “PROTEIN BINDERS TO IRHOM2 EPITOPES” (SCIRHOM GMBH, priority 2019, published 2024).

Test system: LPS-induced release of endogenous TNFα from PBMCs from patients suffering from rheumatoid arthritis
Assay: ELISA-based TNFα release assay, LPS-induced, PBMCs from RA-patients
Assay type: cell-based
Conditions: PBMC; LPS 1 ng/ml, 1.5 hours; chimeric antibodies (CHO) and human IgG at 1 μg/ml; Batimastat at 10 μM
Experimental: In brief, on day 1, Nunc black MaxiSorp® 96-well plates (Thermo Fisher Scientific, USA) were coated overnight with 100 μl per well of mouse anti-human TNFα capture antibody (provided as part of the DuoSet ELISA kit) at 4 μg/ml TBS at 4° C. On day 2, the capture antibody solution was removed and MaxiSorp® plates were blocked with 300 μl per well of TBS, 1% BSA at room temperature for 3 hours. Meanwhile, 20,000 PBMC from patients suffering from rheumatoid arthritis (STEMCELL Technologies, Canada) cells in 80 μl of normal growth medium were seeded in each well of Greiner CELLSTAR V-bottom 96-well plates (Thermo Fisher Scientific, USA) and pre-incubated with 20 μl per well of standard growth medium supplemented with Batimastat (BB94, Abcam, UK) at 50 μM as positive control (for a final concentration of 10 μM in the resulting 100 μl sample volume), human IgG antibody (Thermo Fisher Scientific, USA) at 5 μg/ml as isotype control (for a final concentration of 1 μg/ml in the resulting 100 μl sample volume) or antibodies of the invention at 5 μg/ml (for a final concentration of 1 μg/ml in the resulting 100 μl sample volume) at 37° C., 5% CO2 for 30 minutes. […] Using an infinite M1000 (Tecan Group, Switzerland) microplate reader, the fluorescence of each well was collected at an excitation wavelength of 435 nm and an emission wavelength of 555 nm.

SMILES: CNC(=O)[C@H](Cc1ccccc1)NC(=O)[C@H](CC(C)C)[C@H](CSc1cccs1)C(=O)NO [Batimastat]
- inhibition at 10 µM: 99.9%
